Measured values taken from PubChem BioAssay AID1259407 (Chemical Carcinogenesis Research Information System (CCRIS), 2018).
Active and inactive are the calls of the source. The rule behind the calls is not given here.

Test system: CCRIS mutagenicity, Ames/micronucleus/aberration tests
Experiment: CCRIS mutagenicity studies
Conditions: Test System: AMES SALMONELLA TYPHIMURIUM
Source text: The CCRIS database contains chemical records with carcinogenicity, mutagenicity, tumor promotion, and tumor inhibition test results. It was developed by the National Cancer Institute (NCI). Data are derived from studies cited in primary journals, current awareness tools, NCI reports, and other sources. Test results have been reviewed by experts in carcinogenesis and mutagenesis.
CCRIS provides historical information from the years 1985 - 2011. It is no longer updated.
This is an archive assay for CCRIS mutagenicity studies.

[1] = Strain/Indicator: TA98, Metabolic Activation: NONE, Method: PREINCUBATION
[2] = Strain/Indicator: TA100, Metabolic Activation: NONE, Method: PREINCUBATION
[3] = Strain/Indicator: TA1535, Metabolic Activation: NONE, Method: PREINCUBATION
[4] = Strain/Indicator: TA1537, Metabolic Activation: NONE, Method: PREINCUBATION

## CN(C)CCN(Cc1ccc(Cl)s1)c1ccccn1
Strain/Indicator: TA98, Metabolic Activation: HAMSTER, LIVER, S-9, AROCLOR 1254 (10%), Method: PREINCUBATION
  mutagenic call: inactive; negative
[1]
  mutagenic call: inactive; negative
Strain/Indicator: TA98, Metabolic Activation: RAT, LIVER, S-9, AROCLOR 1254 (10%), Method: PREINCUBATION
  mutagenic call: inactive; negative
Strain/Indicator: TA100, Metabolic Activation: HAMSTER, LIVER, S-9, AROCLOR 1254 (10%), Method: PREINCUBATION
  mutagenic call: inactive; negative
[2]
  mutagenic call: inactive; negative
Strain/Indicator: TA100, Metabolic Activation: RAT, LIVER, S-9, AROCLOR 1254 (10%), Method: PREINCUBATION
  mutagenic call: inactive; negative
Strain/Indicator: TA1535, Metabolic Activation: HAMSTER, LIVER, S-9, AROCLOR 1254 (10%), Method: PREINCUBATION
  mutagenic call: inactive; negative
[3]
  mutagenic call: inactive; negative
Strain/Indicator: TA1535, Metabolic Activation: RAT, LIVER, S-9, AROCLOR 1254 (10%), Method: PREINCUBATION
  mutagenic call: inactive; negative
Strain/Indicator: TA1537, Metabolic Activation: HAMSTER, LIVER, S-9, AROCLOR 1254 (10%), Method: PREINCUBATION
  mutagenic call: inactive; negative
[4]
  mutagenic call: inactive; negative
Strain/Indicator: TA1537, Metabolic Activation: RAT, LIVER, S-9, AROCLOR 1254 (10%), Method: PREINCUBATION
  mutagenic call: inactive; negative

## O=C1C=CC(=O)c2c(O)c(Cl)c(Cl)c(O)c21
Strain/Indicator: TA97, Metabolic Activation: NONE, Method: PREINCUBATION
  mutagenic call: inactive; negative
Strain/Indicator: TA97, Metabolic Activation: RAT, LIVER, S-9, PHENOBARBITAL AND 5,6-BENZOFLAVONE, Method: PREINCUBATION
  mutagenic call: active; positive
[1]
  mutagenic call: inactive; negative
Strain/Indicator: TA98, Metabolic Activation: RAT, LIVER, S-9, PHENOBARBITAL AND 5,6-BENZOFLAVONE, Method: PREINCUBATION
  mutagenic call: inactive; negative
[2]
  mutagenic call: inactive; negative
Strain/Indicator: TA100, Metabolic Activation: RAT, LIVER, S-9, PHENOBARBITAL AND 5,6-BENZOFLAVONE, Method: PREINCUBATION
  mutagenic call: inactive; negative
Strain/Indicator: TA102, Metabolic Activation: NONE, Method: PREINCUBATION
  mutagenic call: inactive; negative
Strain/Indicator: TA102, Metabolic Activation: RAT, LIVER, S-9, PHENOBARBITAL AND 5,6-BENZOFLAVONE, Method: PREINCUBATION
  mutagenic call: active; positive
Strain/Indicator: TA104, Metabolic Activation: NONE, Method: PREINCUBATION
  mutagenic call: active; positive
Strain/Indicator: TA104, Metabolic Activation: RAT, LIVER, S-9, PHENOBARBITAL AND 5,6-BENZOFLAVONE, Method: PREINCUBATION
  mutagenic call: active; positive
[3]
  mutagenic call: inactive; negative
Strain/Indicator: TA1535, Metabolic Activation: RAT, LIVER, S-9, PHENOBARBITAL AND 5,6-BENZOFLAVONE, Method: PREINCUBATION
  mutagenic call: inactive; negative
[4]
  mutagenic call: inactive; negative
Strain/Indicator: TA1537, Metabolic Activation: RAT, LIVER, S-9, PHENOBARBITAL AND 5,6-BENZOFLAVONE, Method: PREINCUBATION
  mutagenic call: active; positive
Strain/Indicator: TA1538, Metabolic Activation: NONE, Method: PREINCUBATION
  mutagenic call: inactive; negative
Strain/Indicator: TA1538, Metabolic Activation: RAT, LIVER, S-9, PHENOBARBITAL AND 5,6-BENZOFLAVONE, Method: PREINCUBATION
  mutagenic call: inactive; negative
Strain/Indicator: TA2637, Metabolic Activation: NONE, Method: PREINCUBATION
  mutagenic call: inactive; negative
Strain/Indicator: TA2637, Metabolic Activation: RAT, LIVER, S-9, PHENOBARBITAL AND 5,6-BENZOFLAVONE, Method: PREINCUBATION
  mutagenic call: active; positive

## CC(=O)Nc1ccc2ncccc2c1
[1]
  mutagenic call: inactive; negative
Strain/Indicator: TA98, Metabolic Activation: RAT, LIVER, S-9, KANECHLOR 500, Method: PREINCUBATION
  mutagenic call: inactive; negative
[2]
  mutagenic call: inactive; negative
Strain/Indicator: TA100, Metabolic Activation: RAT, LIVER, S-9, KANECHLOR 500, Method: PREINCUBATION
  mutagenic call: active; positive

## Cc1cccc(CN(C)N=O)c1
Strain/Indicator: TA1535, Metabolic Activation: HAMSTER, LIVER, S-9, AROCLOR 1254, Method: STANDARD PLATE
  mutagenic call: active; positive
Strain/Indicator: TA1535, Metabolic Activation: NONE, Method: STANDARD PLATE
  mutagenic call: inactive; negative
